Source: US5100873A, “Irreversible peptide ligands for bombesin receptors, their use, and process for making the same” (priority 1988, dated 1992)
Counter-ions that a name gives are not always drawn. Like-named read-outs stand apart in the source and are kept apart here. *1 amine or outer side, *2 acyl side, *3 side chain or, on linkers, in order; H or OH if unused. Where a SMILES comes first, the peptide text is derived from it. [ ]: non-standard residue; d: D form. The star is where a group is joined. Phe(4-N(CH2CH2Cl)2) = N[C@@H](Cc1ccc(N(CCCl)CCCl)cc1)C(=O)O; X1 = O=C([C@H](Cc1cccc(N(CCCl)CCCl)c1)N[*:1])[*:2]; Boc = CC(C)(C)OC(=O)*

Legend:
bombesin receptors = biological target: T1, bombesin receptors (Mus musculus, UniProt P21729); test: Binding affinity for bombesin receptors on mouse Swiss 3T3 fibroblasts; settings: for ID50: mouse Swiss 3T3 fibroblasts
T1 construct: bombesin receptors was determined on mouse Swiss 3T3 fibroblasts; endogenous in cells; host or cells: mouse Swiss 3T3 fibroblasts
T1 sequence (P21729 whole entry): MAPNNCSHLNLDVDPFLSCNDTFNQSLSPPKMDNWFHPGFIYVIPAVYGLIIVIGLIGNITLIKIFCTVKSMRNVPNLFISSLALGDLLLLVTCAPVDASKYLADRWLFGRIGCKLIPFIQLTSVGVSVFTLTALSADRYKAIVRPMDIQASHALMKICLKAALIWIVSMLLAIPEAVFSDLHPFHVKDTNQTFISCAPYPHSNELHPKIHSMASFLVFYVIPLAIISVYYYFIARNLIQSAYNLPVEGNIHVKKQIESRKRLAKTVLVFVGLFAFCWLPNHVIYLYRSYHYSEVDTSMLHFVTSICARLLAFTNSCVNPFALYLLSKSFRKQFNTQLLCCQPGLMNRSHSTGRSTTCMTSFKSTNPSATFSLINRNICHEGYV
Method: The binding affinity of the compounds of the present invention for bombesin receptors was determined on mouse Swiss 3T3 fibroblasts (I. Zachary and E. Rozengurt (1985) Proc. Natl. Acad. Sci. USA, 82, 7616-7620) (Table 1).

Swiss 3T3 fibroblasts [1] = test: [H3]thymidine incorporation (mitogenesis), analogues given alone; type: cell-based, mouse; settings: for [H3]thymidine incorporation, fold increase over basal value: analogue alone; for Effect on thymidine incorporation (in words): given alone
Method: (§1) The effect on mitogenesis was determined in quiescent and confluent Swiss 3T3 cells maintained in serum free medium (A. N. Corps et al (1985) Biochem J. 231, 781-785). In a first set of experiments, analogues were given alone or in combination with bombesin. In a second set of experiments, cells were pre-treated with the alkylating peptides, washed, left at 37° C. for 24 hours and then challenged with bombesin. In both cases, DNA synthesis was evaluated as [H^3 ]thymidine incorporation (Table 2).

Swiss 3T3 fibroblasts [2] = test: Inhibition of BBS-induced [H3]thymidine incorporation (given with BBS or as pre-treatment); type: cell-based, mouse; settings: for % inhibition in the presence of 25 nM BBS (A): A = analogues given in combination with BBS; for % inhibition in the presence of 25 nM BBS (B): B = cells pretreated with analogues, washed, left at 37° C. for 24 h, then challenged with BBS; for Antagonism of BBS (in words): given together / contemporaneously with BBS
Method: as §1

[3] = tested on: p115 protein associated with the bombesin receptor complex; test: Phosphorylation of the p115 protein associated with the bombesin receptor; type: cell-based
Method: Mitogenic effect of bombesin and its analogues were also evaluated as activation of the proteintyrosin kinase that phosphorylates a 115 KD protein (p115) associated with the bombesin receptor complex (D. Cirillo et al. (1986) Mol. Cell. Biol. 6, 4641-4649) (Table 3).

Swiss 3T3 fibroblasts [4] = test: Inhibition of BBS-induced [H3]thymidine incorporation (given with BBS or as pre-treatment); type: cell-based, mouse

Compound: CC(C)[C@H](NC(=O)[C@H](C)NC(=O)[C@H](Cc1c[nH]c2ccccc12)NC(=O)[C@H](CCC(N)=O)NC(=O)[C@H](Cc1cccc(N(CCCl)CCCl)c1)NC(=O)OC(C)(C)C)C(=O)NCC(=O)O [IX, Boc-mMel-Gln-Trp-Ala-Val-Gly-OH] (Boc-[X1]QWAVG-OH)
- IC50 (bombesin receptors): 8200 nM

Compound: Boc-pMel-Gln-Trp-Ala-Val-Gly-His(Dnp)-Leu-Met-NH2 [IV]
- ID50 (bombesin receptors): 1,170 ± 400 nM
- [H3]thymidine incorporation, fold increase over basal value (Swiss 3T3 fibroblasts [1]; 5 nM): 1
- [H3]thymidine incorporation, fold increase over basal value (Swiss 3T3 fibroblasts [1]; 50 nM): 1
- [H3]thymidine incorporation, fold increase over basal value (Swiss 3T3 fibroblasts [1]; 500 nM): 1.7
- [H3]thymidine incorporation, fold increase over basal value (Swiss 3T3 fibroblasts [1]; 5000 nM): 2.3
- Effect on thymidine incorporation (in words) (Swiss 3T3 fibroblasts [1]): did not increase incorporation of thymidine
- % inhibition in the presence of 25 nM BBS (A) (Swiss 3T3 fibroblasts [2]; 500 nM): 59 ± 3%
- % inhibition in the presence of 25 nM BBS (B) (Swiss 3T3 fibroblasts [2]; 500 nM): 81%
- % inhibition in the presence of 25 nM BBS (A) (Swiss 3T3 fibroblasts [2]; 5000 nM): 67 ± 3%
- % inhibition in the presence of 25 nM BBS (B) (Swiss 3T3 fibroblasts [2]; 5000 nM): 73%
- Antagonism of BBS (in words) (Swiss 3T3 fibroblasts [2]): potent antagonists
- Minimal active dose, p115 phosphorylation [3]: 50 nM
- Antagonism of BBS (in words) (Swiss 3T3 fibroblasts [4]): potent antagonists

Compound: CSCC[C@H](NC(=O)[C@H](CC(C)C)NC(=O)[C@H](Cc1c[nH]cn1)NC(=O)CNC(=O)[C@@H](NC(=O)[C@H](C)NC(=O)[C@H](Cc1c[nH]c2ccccc12)NC(=O)[C@H](CCC(N)=O)NC(=O)[C@@H](N)Cc1cccc(N(CCCl)CCCl)c1)C(C)C)C(N)=O [XIX, H-mMel-Gln-Trp-Ala-Val-Gly-His-Leu-Met-NH2.2HCl]
- IC50 (bombesin receptors): 95 ± 8 nM

Compound: Boc-mMel-Gln-Trp-Ala-Val-Gly-His(Dnp)-Leu-Met-NH2 [XVI]
- ID50 (bombesin receptors): 390 ± 160 nM
- [H3]thymidine incorporation, fold increase over basal value (Swiss 3T3 fibroblasts [1]; 5 nM): 1.2
- [H3]thymidine incorporation, fold increase over basal value (Swiss 3T3 fibroblasts [1]; 50 nM): 1.6
- [H3]thymidine incorporation, fold increase over basal value (Swiss 3T3 fibroblasts [1]; 500 nM): 3.1
- [H3]thymidine incorporation, fold increase over basal value (Swiss 3T3 fibroblasts [1]; 5000 nM): 3.9
- Effect on thymidine incorporation (in words) (Swiss 3T3 fibroblasts [1]): did not increase incorporation of thymidine
- % inhibition in the presence of 25 nM BBS (A) (Swiss 3T3 fibroblasts [2]; 500 nM): 17 ± 2%
- % inhibition in the presence of 25 nM BBS (B) (Swiss 3T3 fibroblasts [2]; 500 nM): 47 ± 10%
- % inhibition in the presence of 25 nM BBS (A) (Swiss 3T3 fibroblasts [2]; 5000 nM): 41 ± 1%
- % inhibition in the presence of 25 nM BBS (B) (Swiss 3T3 fibroblasts [2]; 5000 nM): 37 ± 7%
- Antagonism of BBS (in words) (Swiss 3T3 fibroblasts [2]): potent antagonists
- Minimal active dose, p115 phosphorylation [3]: 40 nM
- Antagonism of BBS (in words) (Swiss 3T3 fibroblasts [4]): potent antagonists

Compound: CSCC[C@H](NC(=O)[C@H](CC(C)C)NC(=O)[C@H](Cc1cnc[nH]1)NC(=O)CNC(=O)[C@@H](NC(=O)[C@H](C)NC(=O)[C@H](Cc1c[nH]c2ccccc12)NC(=O)[C@H](CCC(N)=O)NC(=O)[C@H](CC(N)=O)NC(=O)CNC(=O)[C@H](CC(C)C)NC(=O)[C@H](CCCN=C(N)N)NC(=O)[C@H](CCC(N)=O)NC(=O)[C@@H]1CCC(=O)N1)C(C)C)C(N)=O [BBS, Glp-Gln-Arg-Leu-Gly-Asn-Gln-Trp-Ala-Val-Gly-His-Leu-Met-NH2, reference compound]
- [H3]thymidine incorporation, fold increase over basal value (Swiss 3T3 fibroblasts [1]; 5 nM): 3.0 ± 1
- Minimal active dose, p115 phosphorylation [3]: 3

Compound: CSCC[C@H](NC(=O)[C@H](CC(C)C)NC(=O)CNC(=O)[C@@H](NC(=O)[C@H](C)NC(=O)[C@H](Cc1c[nH]c2ccccc12)NC(=O)[C@H](CCC(N)=O)NC(=O)[C@@H](NC(=O)CNC(=O)[C@H](CC(C)C)NC(=O)[C@H](Cc1cccc(N(CCCl)CCCl)c1)NC(=O)OC(C)(C)C)[C@@H](C)O)C(C)C)C(N)=O [XIV, Boc-mMel-Leu-Gly-Thr-Gln-Trp-Ala-Val-Gly-Leu-Met-NH2] (Boc-[X1]LGTQWAVGLM-NH2)
- IC50 (bombesin receptors): 445 ± 60 nM

Compound: H-mMel-Gln-Trp-Ala-Val-Gly-His-(Dnp)-Leu-Met-NH2.HCl [XVII]
- ID50 (bombesin receptors): 148 ± 27 nM
- [H3]thymidine incorporation, fold increase over basal value (Swiss 3T3 fibroblasts [1]; 5 nM): 1
- [H3]thymidine incorporation, fold increase over basal value (Swiss 3T3 fibroblasts [1]; 50 nM): 2.9
- [H3]thymidine incorporation, fold increase over basal value (Swiss 3T3 fibroblasts [1]; 500 nM): 4.2
- [H3]thymidine incorporation, fold increase over basal value (Swiss 3T3 fibroblasts [1]; 5000 nM): 3.9
- Effect on thymidine incorporation (in words) (Swiss 3T3 fibroblasts [1]): did not increase incorporation of thymidine
- % inhibition in the presence of 25 nM BBS (A) (Swiss 3T3 fibroblasts [2]; 500 nM): 6 ± 3%
- % inhibition in the presence of 25 nM BBS (B) (Swiss 3T3 fibroblasts [2]; 500 nM): 58 ± 13%
- % inhibition in the presence of 25 nM BBS (A) (Swiss 3T3 fibroblasts [2]; 5000 nM): 20 ± 7%
- % inhibition in the presence of 25 nM BBS (B) (Swiss 3T3 fibroblasts [2]; 5000 nM): 62 ± 1%
- Antagonism of BBS (in words) (Swiss 3T3 fibroblasts [2]): potent antagonists
- Minimal active dose, p115 phosphorylation [3]: 4 nM
- Antagonism of BBS (in words) (Swiss 3T3 fibroblasts [4]): potent antagonists

Compound: CC(C)[C@H](NC(=O)[C@H](C)NC(=O)[C@H](Cc1c[nH]c2ccccc12)NC(=O)[C@H](CCC(N)=O)NC(=O)[C@H](Cc1ccc(N(CCCl)CCCl)cc1)NC(=O)OC(C)(C)C)C(=O)NCC(=O)O [III, Boc-pMel-Gln-Trp-Ala-Val-Gly-OH] (Boc-[Phe(4-N(CH2CH2Cl)2)]QWAVG-OH)
- IC50 (bombesin receptors): 12000 nM

Compound: CSCC[C@H](NC(=O)[C@H](CC(C)C)NC(=O)[C@H](Cc1c[nH]cn1)NC(=O)CNC(=O)[C@@H](NC(=O)[C@H](C)NC(=O)[C@H](Cc1c[nH]c2ccccc12)NC(=O)[C@H](CCC(N)=O)NC(=O)[C@@H](N)Cc1ccc(N(CCCl)CCCl)cc1)C(C)C)C(N)=O [VII, H-pMel-Gln-Trp-Ala-Val-Gly-His-Leu-Met-NH2.2 HCl]
- IC50 (bombesin receptors): 60 ± 20 nM

Compound: CSCC[C@H](NC(=O)[C@H](CC(C)C)NC(=O)[C@H](Cc1c[nH]cn1)NC(=O)CNC(=O)[C@@H](NC(=O)[C@H](C)NC(=O)[C@H](Cc1c[nH]c2ccccc12)NC(=O)[C@H](CCC(N)=O)NC(=O)[C@H](Cc1ccc(N(CCCl)CCCl)cc1)NC(=O)OC(C)(C)C)C(C)C)C(N)=O [VI, Boc-pMel-Gln-Trp-Ala-Val-Gly-His-Leu-Met-NH2]
- IC50 (bombesin receptors): 48 ± 2 nM

Compound: H-pMel-Gln-Trp-Ala-Val-Gly-His(Dnp)-Leu-Met-NH2.HCl
- ID50 (bombesin receptors): 680 ± 150 nM
- [H3]thymidine incorporation, fold increase over basal value (Swiss 3T3 fibroblasts [1]; 5 nM): 1
- [H3]thymidine incorporation, fold increase over basal value (Swiss 3T3 fibroblasts [1]; 50 nM): 1
- [H3]thymidine incorporation, fold increase over basal value (Swiss 3T3 fibroblasts [1]; 500 nM): 1.4
- [H3]thymidine incorporation, fold increase over basal value (Swiss 3T3 fibroblasts [1]; 5000 nM): 1.8
- Effect on thymidine incorporation (in words) (Swiss 3T3 fibroblasts [1]): did not increase incorporation of thymidine
- % inhibition in the presence of 25 nM BBS (A) (Swiss 3T3 fibroblasts [2]; 500 nM): 26 ± 8%
- % inhibition in the presence of 25 nM BBS (B) (Swiss 3T3 fibroblasts [2]; 500 nM): 87 ± 9%
- % inhibition in the presence of 25 nM BBS (A) (Swiss 3T3 fibroblasts [2]; 5000 nM): 44 ± 12%
- % inhibition in the presence of 25 nM BBS (B) (Swiss 3T3 fibroblasts [2]; 5000 nM): 83 ± 6%
- Antagonism of BBS (in words) (Swiss 3T3 fibroblasts [2]): potent antagonists
- Minimal active dose, p115 phosphorylation [3]: 100 nM
- Antagonism of BBS (in words) (Swiss 3T3 fibroblasts [4]): potent antagonists

Compound: CSCC[C@H](NC(=O)[C@H](CC(C)C)NC(=O)[C@H](Cc1c[nH]cn1)NC(=O)CNC(=O)[C@@H](NC(=O)[C@H](C)NC(=O)[C@H](Cc1c[nH]c2ccccc12)NC(=O)[C@H](CCC(N)=O)NC(=O)[C@H](Cc1cccc(N(CCCl)CCCl)c1)NC(=O)OC(C)(C)C)C(C)C)C(N)=O [XVIII, Boc-mMel-Gln-Trp-Ala-Val-Gly-His-Leu-Met-NH3.CF3 COOH]
- IC50 (bombesin receptors): 40 ± 12 nM

Compound: CSCC[C@H](NC(=O)[C@H](CC(C)C)NC(=O)CNC(=O)[C@@H](NC(=O)[C@H](C)NC(=O)[C@H](Cc1c[nH]c2ccccc12)NC(=O)[C@H](CCC(N)=O)NC(=O)[C@H](Cc1cccc(N(CCCl)CCCl)c1)NC(=O)OC(C)(C)C)C(C)C)C(N)=O [XX, Boc-mMel-Gln-Trp-Ala-Val-Gly-Leu-Met-NH2] (Boc-[X1]QWAVGLM-NH2)
- IC50 (bombesin receptors): 60.1 ± 3.3 nM

Compound: CC(C)C[C@H](NC(=O)[C@H](CC(C)C)NC(=O)[C@@H](Cc1c[nH]c2ccccc12)NC(=O)[C@H](Cc1ccccc1)NC(=O)[C@@H](Cc1c[nH]c2ccccc12)NC(=O)[C@H](CCC(N)=O)NC(=O)[C@H](CCC(N)=O)NC(=O)[C@@H]1CCCN1C(=O)[C@H](CCCCN)NC(=O)[C@@H]1CCCN1C(=O)[C@H](N)CCCNC(=N)N)C(N)=O [Spantide, reference compound] (H-[dR]PKPQQ[dW]F[dW]LL-NH2)
- Minimal active dose, p115 phosphorylation [3]: > 10000 nM
